The values below come from patent publication US20240199623A1 (ILDONG PHARMACEUTICAL CO., LTD., priority 2020, published 2024).

In data set [1] the target is T1, Human recombinant PDE4A1A (Homo sapiens, UniProt P27815).
T1 construct: purchased BPS Bioscience; host or cells: insect Sf9 cells
Kind of data set: Human phosphodiesterase 4 (PDE4) inhibition, PDE4A1A. It is filed as biochemical. The note with it: read-out: % inhibition range at 10 uM PDE4A1A; 10 uM test compound. The method, then: (§1) […] Human recombinant PDE4A1A, PDE4B 1, PDE4C1 and PDE4D2 are respectively expressed in each host cell (insect Sf9 cells, BPS Bioscience). Preincubation of 10 μM test compounds or vehicle was proceeded with 20 ng/ml PDE4A1A or 4 ng/ml PDE4B 1 or 8 ng/ml PDE4C1 or 5 ng/ml PDE4D2 enzyme in Tris-HCl buffer pH 7.2 for 15 minutes at 25° C. 100 nM fluorescein (FAM) labeled cAMP for another 30 minutes incubation period was added in order to initiate the enzymatic reaction and addition of IMAP binding solution was followed for its termination. Specifically, IMAP complexes with phosphate groups on nucleotide monophosphate generated from cyclic nucleotides through PDE activity. The amount of complex formed is determined by reading spectrofluorimetrical signal at 470 nm/525 nm.

Data set [2] concerns the target T2, human wild type-CFTR (Homo sapiens, UniProt P13569). Kind of data set: Cell-based YFP assay. The note with it: CHO-K1 cells expressing human wild type-CFTR and YFP-H148Q/I152L; forskolin 20 μM = 100% activity; read-out: Cell-based YFP Assay (EC50) Concentration Range. The arrangement: expressed in transfected cells; host or cells: CHO-K1 (Chinese hamster ovary). In short, it runs like this: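 CHO-K1 cells co-expressing human wild-type CFTR and YFP-H148Q/I152L halide sensor, grown 48 h at 37 °C, then in PBS. YFP quenching by I⁻ influx read at 37 °C after adding 140 mM I⁻ solution, sampled every 0.4 s for 14 s. Triplicates averaged; EC50 fitted.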

Data set [3] in a line: Phosphate-buffered saline (PBS) solubility of compounds. It is filed as physicochemical. The note with it: aqueous buffer, thermodynamic from solid, PBS pH 7.5, 0.5 mg/mL, vortexed 90 min, filtered, LC-MS/MS, read-out: Solubility Range. The method, then: PBS solutions (pH 7.5) were prepared according to the following compositions and stored at 4° C. Test compounds were dissolved in PBS (pH 7.5) at 0.5 mg/mL and vortexed for 90 min. The PBS solution was sequentially filtered through a 0.45, 1.2, […] syringe filter. Concentration of test compounds were determined using LC-MS/MS with appropriate dilution of the samples.

The target in data set [4] is T3, Human recombinant PDE4B 1 (Homo sapiens, UniProt Q07343).
T3 construct: purchased BPS Bioscience; host or cells: insect Sf9 cells
Put plainly: Human phosphodiesterase 4 (PDE4) inhibition, PDE4B 1. In kind it is biochemical. The note with it: read-out: % inhibition range at 10 uM PDE4B1; 10 uM test compound. The method, then:
as §1

The next data set concerns the target T4, Human recombinant PDE4D2 (Homo sapiens, UniProt Q08499).
T4 construct: purchased BPS Bioscience; host or cells: insect Sf9 cells
Put plainly: Human phosphodiesterase 4 (PDE4) inhibition, PDE4D2. The note with it: read-out: % inhibition range at 10 uM PDE4D2; 10 uM test compound. It is filed as biochemical. The method, then: as §1

A further data set concerns C57BL/6 female mice. Put plainly: Scopolamine induced tear volume reduction model. The note with it: scopolamine-injected mice, ophthalmic solution topically on both eyes 3 times a day, phenol red thread; average if evaluated twice. It is filed as in vivo, mouse. In short, it runs like this: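 Seven-week-old female C57BL/6 mice received scopolamine (0.2 ml of 2.5 mg/mL) s.c. 3 times daily; test compounds in PBS with 1% surfactant applied topically to both eyes 3 times daily. Tear volume measured by phenol red thread length before dosing and 1 h after last administration; duplicate evaluations averaged.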

Another data set concerns the target T5, Human recombinant PDE4C1 (Homo sapiens, UniProt Q08493).
T5 construct: purchased BPS Bioscience; host or cells: insect Sf9 cells
Put plainly: Human phosphodiesterase 4 (PDE4) inhibition, PDE4C1. It is filed as biochemical. Conditions: read-out: % inhibition range at 10 uM PDE4C1; 10 uM test compound. The method, then: as §1

Data set [5] has as its target T2, human wild type-CFTR. Put plainly: Short-circuit current measurement. In kind it is cell-based. The arrangement: expressed in transfected cells. Conditions: FRT cells expressing human wild type-CFTR; Forskolin 20 μM signal used as 100% activity; read-out: Short-circuit current measurement (EC50) Concentration range. In short, it runs like this:
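Ussing-chamber short-circuit current in FRT cells expressing human wild-type CFTR, grown on Snapwell inserts. Forskolin, test compounds and CFTRinh-172 added to both apical and basolateral baths; apical membrane current and Isc sampled at 4 Hz.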

In brackets after ≈: the same amount, converted by molar mass.

T2 sequence (P13569 whole entry): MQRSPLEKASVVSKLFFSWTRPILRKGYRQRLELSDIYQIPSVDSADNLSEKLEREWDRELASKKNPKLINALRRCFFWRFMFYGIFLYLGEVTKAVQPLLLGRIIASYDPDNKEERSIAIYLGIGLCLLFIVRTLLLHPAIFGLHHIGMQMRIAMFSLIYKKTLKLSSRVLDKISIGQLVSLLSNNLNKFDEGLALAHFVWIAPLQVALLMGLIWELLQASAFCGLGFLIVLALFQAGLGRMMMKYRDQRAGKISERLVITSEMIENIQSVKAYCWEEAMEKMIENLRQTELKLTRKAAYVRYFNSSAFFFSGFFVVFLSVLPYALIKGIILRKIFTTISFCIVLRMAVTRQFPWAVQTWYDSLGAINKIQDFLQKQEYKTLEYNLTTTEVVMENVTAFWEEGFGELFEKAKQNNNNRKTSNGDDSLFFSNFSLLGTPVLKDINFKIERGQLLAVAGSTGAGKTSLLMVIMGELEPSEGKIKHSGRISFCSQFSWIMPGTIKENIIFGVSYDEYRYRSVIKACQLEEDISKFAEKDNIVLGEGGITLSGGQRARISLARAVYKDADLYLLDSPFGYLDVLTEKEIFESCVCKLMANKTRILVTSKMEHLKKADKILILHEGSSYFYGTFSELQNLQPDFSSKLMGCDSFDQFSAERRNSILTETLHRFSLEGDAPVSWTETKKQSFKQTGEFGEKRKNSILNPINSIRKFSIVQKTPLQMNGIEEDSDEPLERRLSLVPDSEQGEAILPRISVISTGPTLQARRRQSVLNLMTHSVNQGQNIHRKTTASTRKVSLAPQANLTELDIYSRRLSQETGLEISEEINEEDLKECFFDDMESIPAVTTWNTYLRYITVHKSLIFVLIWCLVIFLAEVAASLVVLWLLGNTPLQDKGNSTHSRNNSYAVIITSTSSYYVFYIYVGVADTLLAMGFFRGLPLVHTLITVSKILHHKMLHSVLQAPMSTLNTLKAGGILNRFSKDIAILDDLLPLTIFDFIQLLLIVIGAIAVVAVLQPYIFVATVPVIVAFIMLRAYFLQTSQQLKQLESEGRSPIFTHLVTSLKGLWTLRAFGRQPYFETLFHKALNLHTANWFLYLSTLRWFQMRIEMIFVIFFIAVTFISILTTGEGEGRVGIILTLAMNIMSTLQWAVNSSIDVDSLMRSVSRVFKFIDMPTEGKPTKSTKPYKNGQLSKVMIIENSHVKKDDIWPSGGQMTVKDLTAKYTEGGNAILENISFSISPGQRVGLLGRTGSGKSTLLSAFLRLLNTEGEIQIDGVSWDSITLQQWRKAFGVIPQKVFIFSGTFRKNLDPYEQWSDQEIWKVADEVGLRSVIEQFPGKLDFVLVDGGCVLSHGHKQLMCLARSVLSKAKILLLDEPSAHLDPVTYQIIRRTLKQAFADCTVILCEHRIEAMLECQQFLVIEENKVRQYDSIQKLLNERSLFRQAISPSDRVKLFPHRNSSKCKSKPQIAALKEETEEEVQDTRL
T5 sequence (Q08493 whole entry): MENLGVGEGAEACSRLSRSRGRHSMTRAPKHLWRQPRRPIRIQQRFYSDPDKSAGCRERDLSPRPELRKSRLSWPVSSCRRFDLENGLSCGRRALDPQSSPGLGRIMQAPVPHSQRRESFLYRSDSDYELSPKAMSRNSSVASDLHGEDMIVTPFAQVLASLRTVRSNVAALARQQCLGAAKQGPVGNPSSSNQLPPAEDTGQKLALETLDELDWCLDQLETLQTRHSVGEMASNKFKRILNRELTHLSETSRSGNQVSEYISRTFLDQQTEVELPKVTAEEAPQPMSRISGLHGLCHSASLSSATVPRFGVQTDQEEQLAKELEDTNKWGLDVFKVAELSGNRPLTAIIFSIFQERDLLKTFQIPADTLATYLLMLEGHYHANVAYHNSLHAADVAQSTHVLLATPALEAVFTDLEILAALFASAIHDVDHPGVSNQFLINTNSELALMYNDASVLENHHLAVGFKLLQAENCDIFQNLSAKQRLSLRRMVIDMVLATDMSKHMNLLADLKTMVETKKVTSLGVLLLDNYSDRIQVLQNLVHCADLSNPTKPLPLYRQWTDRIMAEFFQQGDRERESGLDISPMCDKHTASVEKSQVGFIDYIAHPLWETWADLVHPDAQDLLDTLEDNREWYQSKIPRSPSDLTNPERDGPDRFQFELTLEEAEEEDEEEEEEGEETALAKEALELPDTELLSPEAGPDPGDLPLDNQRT
T4 sequence (Q08499 303-809 limits assumed): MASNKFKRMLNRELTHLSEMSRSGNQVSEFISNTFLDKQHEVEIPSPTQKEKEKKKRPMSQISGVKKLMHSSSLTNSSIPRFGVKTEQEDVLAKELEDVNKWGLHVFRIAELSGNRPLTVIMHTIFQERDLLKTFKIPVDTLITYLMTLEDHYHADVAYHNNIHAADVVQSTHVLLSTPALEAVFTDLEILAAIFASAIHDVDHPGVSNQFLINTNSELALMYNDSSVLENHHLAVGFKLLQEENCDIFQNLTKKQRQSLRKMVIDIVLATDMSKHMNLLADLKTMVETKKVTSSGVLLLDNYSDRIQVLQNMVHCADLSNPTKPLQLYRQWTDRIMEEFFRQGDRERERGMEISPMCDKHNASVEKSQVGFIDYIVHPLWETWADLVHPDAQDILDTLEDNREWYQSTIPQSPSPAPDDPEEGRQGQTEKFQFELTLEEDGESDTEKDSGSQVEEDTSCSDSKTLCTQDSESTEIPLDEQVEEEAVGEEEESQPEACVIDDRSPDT
T3 sequence (Q07343 whole entry): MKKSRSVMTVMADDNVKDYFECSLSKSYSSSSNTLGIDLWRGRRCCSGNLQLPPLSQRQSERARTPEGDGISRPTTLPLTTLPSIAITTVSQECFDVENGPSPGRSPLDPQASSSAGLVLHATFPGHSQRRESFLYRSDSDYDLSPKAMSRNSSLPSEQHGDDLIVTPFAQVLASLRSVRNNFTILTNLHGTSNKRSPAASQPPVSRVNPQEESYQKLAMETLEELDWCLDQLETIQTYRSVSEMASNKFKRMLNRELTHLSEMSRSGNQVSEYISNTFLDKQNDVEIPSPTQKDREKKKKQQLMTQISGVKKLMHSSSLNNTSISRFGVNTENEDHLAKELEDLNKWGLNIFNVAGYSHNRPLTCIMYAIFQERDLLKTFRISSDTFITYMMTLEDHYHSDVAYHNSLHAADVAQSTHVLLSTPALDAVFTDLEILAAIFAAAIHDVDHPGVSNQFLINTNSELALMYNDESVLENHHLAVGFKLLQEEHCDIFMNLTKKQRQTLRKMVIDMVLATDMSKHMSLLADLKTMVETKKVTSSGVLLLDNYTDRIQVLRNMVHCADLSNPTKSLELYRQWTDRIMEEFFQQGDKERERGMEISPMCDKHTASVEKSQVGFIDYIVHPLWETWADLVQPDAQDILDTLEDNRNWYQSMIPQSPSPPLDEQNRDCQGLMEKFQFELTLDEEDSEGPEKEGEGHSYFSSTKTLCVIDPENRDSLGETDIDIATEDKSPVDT
T1 sequence (P27815 1-647 isoform P27815-4): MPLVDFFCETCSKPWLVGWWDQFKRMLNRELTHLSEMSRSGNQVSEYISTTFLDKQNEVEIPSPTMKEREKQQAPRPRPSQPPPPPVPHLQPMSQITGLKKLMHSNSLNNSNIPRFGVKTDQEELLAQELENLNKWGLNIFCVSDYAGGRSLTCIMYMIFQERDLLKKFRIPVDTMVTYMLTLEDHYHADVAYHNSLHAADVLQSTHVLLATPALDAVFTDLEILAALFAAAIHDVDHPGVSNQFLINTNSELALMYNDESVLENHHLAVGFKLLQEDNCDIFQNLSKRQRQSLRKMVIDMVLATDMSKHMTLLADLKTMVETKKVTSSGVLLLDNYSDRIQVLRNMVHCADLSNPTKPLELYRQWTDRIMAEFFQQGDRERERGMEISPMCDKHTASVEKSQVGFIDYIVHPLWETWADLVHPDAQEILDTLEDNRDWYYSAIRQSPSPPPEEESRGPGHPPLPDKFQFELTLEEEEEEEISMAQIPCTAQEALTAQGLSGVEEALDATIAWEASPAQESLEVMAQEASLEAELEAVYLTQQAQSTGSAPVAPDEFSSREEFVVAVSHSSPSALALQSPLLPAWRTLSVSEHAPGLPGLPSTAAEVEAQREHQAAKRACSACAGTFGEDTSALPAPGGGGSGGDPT

Take `COc1ccc(-c2ccnc3cc(C(=O)Nc4ccc(C(=O)N5CCN(C)CC5)cc4)nn23)cc1OC` [Compound 97, 7-(3,4-dimethoxyphenyl)-N-(4-(4-methylpiperazine-1-carbonyl)phenyl)pyrazolo[1,5-a]pyrimidine-2-carboxamide]: the inhibition at 10 µM (in data set [1]; in data set [4]; at Human recombinant PDE4D2; at Human recombinant PDE4C1) was above 80% throughout. The EC50 on human wild type-CFTR [2] and on human wild type-CFTR [5] was 200 to 2000 nM each time. For the same molecule, the solubility at 90 min in data set [3] lay in the range of 0.1 to 10 µg/mL (≈ 0.2 to 20 µM). Further, in the data set with C57BL/6 female mice, the “Ratio of tear volume (test compound to vehicle)” value was 0.95.

As a reminder, the inhibition is the change of the read-out against control, counted positive when it falls. One may read the solubility as how much of the substance goes into solution per volume.
